Test results published in patent publication US20140288044A1, “COMPOSITIONS AND THERAPEUTIC USES OF IKK-RELATED KINASE EPSILON AND TANKBINDING KINASE 1 INHIBITORS” (Alzheimer's Institute of America, Inc., priority 2011, published 2014).
Where two headings read alike, the source gives them in different places.

How the values were obtained:
[1] = tested on: IKKε-mediated phosphorylation of IRF3; experiment: ELISA for in-situ phosphorylation of IRF3 (phospho-Ser396) in HEK293T cells cotransfected with IRF3 and IKKε; assay type: cell-based; details: Homo sapiens, HEK-293T
Outline: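 HEK293T cells cotransfected with IRF3 and IKKε were treated with compound for 20 h, and lysates were assayed by ELISA for phospho-Ser396 IRF3, normalized to DMSO. Viability was checked in parallel by CellTiter-Glo. For TBK1, cells cotransfected with IRF7 and TBK1 were treated overnight and probed by Western blot for phospho-Ser477/Ser479 IRF7.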

IKKε = biological target: T1, IKKε (Homo sapiens, UniProt Q14164); experiment: In-vitro IKKε kinase assay (radiolabelled ATP, filterplate); assay type: biochemical
T1 construct: His-tag (in-house Sf9 preparation) or GST-tag (purchased Invitrogen preparation); these are alternatives, not both on one protein; host or cells: Sf9 cells
T1 sequence (Q14164 1-716): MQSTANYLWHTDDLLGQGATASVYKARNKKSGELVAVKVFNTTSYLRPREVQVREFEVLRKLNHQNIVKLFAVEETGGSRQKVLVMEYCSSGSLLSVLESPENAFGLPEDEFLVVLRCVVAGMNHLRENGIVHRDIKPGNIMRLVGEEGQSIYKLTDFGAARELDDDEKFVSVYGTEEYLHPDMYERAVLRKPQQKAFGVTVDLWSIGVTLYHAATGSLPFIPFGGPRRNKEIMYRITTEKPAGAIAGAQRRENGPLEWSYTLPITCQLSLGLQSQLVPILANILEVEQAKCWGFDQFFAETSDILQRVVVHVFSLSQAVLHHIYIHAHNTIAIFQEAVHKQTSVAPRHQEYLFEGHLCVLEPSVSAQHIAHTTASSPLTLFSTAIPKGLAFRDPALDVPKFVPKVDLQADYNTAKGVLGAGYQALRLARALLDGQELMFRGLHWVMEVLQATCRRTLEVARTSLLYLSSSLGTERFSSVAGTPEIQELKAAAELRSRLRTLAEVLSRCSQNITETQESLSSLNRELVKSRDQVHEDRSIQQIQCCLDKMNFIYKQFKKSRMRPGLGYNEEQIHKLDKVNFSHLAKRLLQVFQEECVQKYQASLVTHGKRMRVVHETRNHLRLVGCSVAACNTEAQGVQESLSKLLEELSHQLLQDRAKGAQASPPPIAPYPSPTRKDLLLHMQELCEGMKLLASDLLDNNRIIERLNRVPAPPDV
Outline: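 His-tagged IKKε from Sf9 cells or GST-tagged IKKε, with myelin basic protein, casein or dephosphorylated casein as substrate and 32 μM ATP (2× Km) plus [γ^33]ATP. "Normal" assay used 0.1 μg/ml enzyme; "sensitized" used 0.015 μg/ml with dephosphorylated casein only. Stopped after 30–45 min with phosphoric acid; P-81 filter counts normalized to DMSO after background subtraction.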

[2] = tested on: RANTES secretion by prostate cancer DU145 cells; experiment: ELISA to detect secreted RANTES, prostate cancer DU145 cells; assay type: cell-based; details: Homo sapiens, DU-145
Description: Prostate cancer DU145 cells were seeded at 20,000 cells/well in a 96-well tissue culture plate. The following day media was removed and replaced with complete media containing IKKε/TBK1 inhibitor (starting concentration 25 μM, 1:3 dilutions, final DMSO 0.05%). Cells were incubated for 20 hours and culture supernatant used to determine secreted RANTES levels using a commercially available ELISA kit (R & D Systems, Minneapolis, Minn.).

[3] = 20 h, HEK293T cells, 20 hours, range given from about 1 μM to about 250 nM, read-out: IC50, in-situ IKKε-mediated phosphorylation of IRF3
[4] = Table 3, HEK293T cells in culture, read-out: pIRF3 ELISA IC50
[5] = Table 3, in vitro, read-out: IKKε IC50
[6] = DU145 cells, 20 hours, read-out: IC50, inhibition of the secretion of RANTES
[7] = Table 3, DU145 cells in culture, read-out: RANTES Secretion IC50
[8] = "sensitized" assay, read-out: IC50, inhibition of the kinase activity of IKKε
[9] = in-vitro IKKε kinase inhibition assays, given as 0.005 μM (5 nM), read-out: IKKε kinase inhibitory activity (IC50 value)
[10] = 20 h, HEK293T cells, 20 hours, read-out: IC50, in-situ IKKε-mediated phosphorylation of IRF3

| Structure (SMILES) | IC50 [1, 3] | IC50 [1, 4] | IC50 (IKKε; [5]) | IC50 [2, 6] | IC50 [2, 7] | IC50 (IKKε; [8]) | IC50 (IKKε; [9]) | IC50 [1, 10] |
| --- | --- | --- | --- | --- | --- | --- | --- | --- |
| COCCOC1CN(Cc2ccc(Nc3nccc(-c4ccc(OC5CCOCC5)c(C#N)c4)n3)cn2)C1 [Example Compound 49, 5-{2-[(6-{[3-(2-Methoxyethoxy)azetidin-1-yl]methyl}pyridin-3-yl)amino]pyrimidin-4-yl}-2-(tetrahydro-2H-pyran-4-yloxy)benzonitrile] | 250 to 1000 nM | 363 nM | 6.11 nM | 20 to 60 nM | 55.8 nM | – | – | – |
| COC1CN(Cc2ccc(Nc3nccc(-c4ccc(OC5CCOCC5)c(C#N)c4)n3)cn2)C1 [Example Compound 48, 5-[2-({6-[(3-Methoxyazetidin-1-yl)methyl]pyridin-3-yl}amino)pyrimidin-4-yl]-2-(tetrahydro-2H-pyran-4-yloxy)benzonitrile] | 250 to 1000 nM | 315 nM | 2.74 nM | 20 to 60 nM | 52.2 nM | < 5 nM | < 5 nM | – |
| N#Cc1cc(-c2ccnc(Nc3cccnc3)n2)ccc1OC1CCOCC1 [Example Compound 11, 5-[2-(Pyridin-3-ylamino)pyrimidin-4-yl]-2-(tetrahydro-2H-pyran-4-yloxy)benzonitrile] | – | – | – | 60 to 125 nM | – | < 5 nM | < 5 nM | – |
| COC1CN(Cc2ccc(Nc3nccc(-c4ccc(NC(=O)C5CC5)c(C#N)c4)n3)cn2)C1 [Example Compound 146, N-{2-Cyano-4-[2-({6-[(3-methoxyazetidin-1-yl)methyl]pyridin-3-yl}amino)pyrimidin-4-yl]phenyl}cyclopropanecarboxamide] | – | – | – | 60 to 125 nM | – | – | – | – |
| CN(CCO)c1ccc(Nc2nccc(-c3ccc(OCC4CC4)c(C#N)c3)n2)cn1 [Example Compound 111, 2-(Cyclopropylmethoxy)-5-[2-({6-[(2-hydroxyethyl)(methyl)amino]pyridin-3-yl}amino)pyrimidin-4-yl]benzonitrile] | – | – | – | 20 to 60 nM | – | < 5 nM | < 5 nM | – |
| N#Cc1cc(-c2ccnc(Nc3ccc(CNC(=O)N4CCOCC4)nc3)n2)ccc1OC1CCOCC1 [Example Compound 229, N-{[5-({4-[3-Cyano-4-(tetrahydro-2H-pyran-4-yloxy)phenyl]pyrimidin-2-yl}amino)pyridin-2-yl]methyl}morpholine-4-carboxamide] | – | – | – | – | – | < 5 nM | – | 100 to 250 nM |
| COCCNC(=O)c1cncc(Nc2nccc(-c3ccc(OC4CCOCC4)c(C#N)c3)n2)c1 [Example Compound 15, 5-({4-[3-Cyano-4-(tetrahydro-2H-pyran-4-yloxy)phenyl]pyrimidin-2-yl}amino)-N-(2-methoxyethyl)pyridine-3-carboxamide] | 250 to 1000 nM | – | – | – | – | < 5 nM | < 5 nM | – |
| N#Cc1cc(-c2ccnc(Nc3ccc(C4CC4)nc3)n2)ccc1OC1CCOCC1 [Example Compound 4, 5-{2-[(6-Cyclopropylpyridin-3-yl)amino]pyrimidin-4-yl}-2-(tetrahydro-2H-pyran-4-yloxy)benzonitrile] | – | – | – | – | – | < 5 nM | < 5 nM | < 100 nM |
| Cc1ccc(Nc2nccc(-c3ccc(OC4CCOCC4)c(C#N)c3)n2)cn1 [Example Compound 7, 5 5-{2-[(6-Methylpyridin-3-yl)amino]pyrimidin-4-yl}-2-(tetrahydro-2H-pyran-4-yloxy)benzonitrile] | – | – | – | – | – | < 5 nM | < 5 nM | 100 to 250 nM |
| CN(Cc1ccc(Nc2nccc(-c3ccc(OC4CCOCC4)c(C#N)c3)n2)cn1)C(=O)C1(O)CC1 [Example Compound 59, N-{[5-({4-[3-Cyano-4-(tetrahydro-2H-pyran-4-yloxy)phenyl]pyrimidin-2-yl}amino)pyridin-2-yl]methyl}-1-hydroxy-N-methylcyclopropanecarboxamide] | 250 to 1000 nM | – | – | – | – | – | < 5 nM | – |
| N#Cc1cc(-c2ccnc(Nc3ccnc(CN4CCC(F)(F)C4)c3)n2)ccc1OC1CCOCC1 [Example Compound 71, 5-[2-({2-[(3,3-Difluoropyrrolidin-1-yl)methyl]pyridin-4-yl}amino)pyrimidin-4-yl]-2-(tetrahydro-2H-pyran-4-yloxy)benzonitrile] | – | – | – | – | – | – | < 5 nM | < 100 nM |
| COC1CN(Cc2cncc(Nc3nccc(-c4ccc(OC5CCOCC5)c(C#N)c4)n3)c2)C1 [Example Compound 23, 5-[2-({5-[(3-Methoxyazetidin-1-yl)methyl]pyridin-3-yl}amino)pyrimidin-4-yl]-2-(tetrahydro-2H-pyran-4-yloxy)benzonitrile] | 250 to 1000 nM | – | – | – | – | < 5 nM | < 5 nM | – |
| N#Cc1cc(-c2ccnc(Nc3cnc(N4CCOCC4)nc3)n2)ccc1OC1CCOCC1 [Example Compound 2, 5-(2-{[2-(Morpholin-4-yl)pyrimidin-5-yl]amino}pyrimidin-4-yl)-2-(tetrahydro-2H-pyran-4-yloxy)benzonitrile] | – | – | – | 60 to 125 nM | – | – | – | – |
| Cn1cc(-c2cc(Nc3nccc(-c4ccc(OC5CCOCC5)c(C#N)c4)n3)ccn2)cn1 [Example Compound 82, 5-(2-{[2-(1-Methyl-1H-pyrazol-4-yl)pyridin-4-yl]amino}pyrimidin-4-yl)-2-(tetrahydro-2H-pyran-4-yloxy)benzonitrile] | – | – | – | – | – | < 5 nM | < 5 nM | < 100 nM |
| COCCOC1CN(C(=O)c2ccc(Nc3nccc(-c4ccc(OC5CCOCC5)c(C#N)c4)n3)cn2)C1 [Example Compound 28, 5-{2-[(6-{[3-(2-Methoxyethoxy)azetidin-1-yl]carbonyl}pyridin-3-yl)amino]pyrimidin-4-yl}-2-(tetrahydro-2H-pyran-4-yloxy)benzonitrile] | – | – | – | 60 to 125 nM | – | – | – | 1000 to 5000 nM |
| N#Cc1cc(-c2ccnc(Nc3ccnc(N4CCOCC4)c3)n2)ccc1OC1CCOCC1 [Example Compound 44, 5-(2-{[2-(Morpholin-4-yl)pyridin-4-yl]amino}pyrimidin-4-yl)-2-(tetrahydro-2H-pyran-4-yloxy)benzonitrile] | – | – | – | – | – | < 5 nM | < 5 nM | < 100 nM |
| Cn1cc(-c2ccc(Nc3nccc(-c4ccc(OC5CCOCC5)c(C#N)c4)n3)cn2)cn1 [Example Compound 77, 5-(2-{[6-(1-Methyl-1H-pyrazol-4-yl)pyridin-3-yl]amino}pyrimidin-4-yl)-2-(tetrahydro-2H-pyran-4-yloxy)benzonitrile] | – | – | – | – | – | – | < 5 nM | < 100 nM |
| N#Cc1cc(-c2ccnc(Nc3ccc(N4CCOCC4)nc3)n2)ccc1O[C@@H]1CCN(C(=O)CO)C1 [Example Compound 119, 2-{[(3R)-1-(Hydroxyacetyl)pyrrolidin-3-yl]oxy}-5-(2-{[6-(morpholin-4-yl)pyridin-3-yl]amino}pyrimidin-4-yl)benzonitrile] | – | – | – | – | – | < 5 nM | < 5 nM | 100 to 250 nM |
| CC(C)COc1ccc(-c2ccnc(Nc3ccc(N(C)CCO)nc3)n2)cc1C#N [Example Compound 109, 5-[2-({6-[(2-Hydroxyethyl)(methyl)amino]pyridin-3-yl}amino)pyrimidin-4-yl]-2-(2-methylpropoxy)benzonitrile] | – | – | – | – | – | < 5 nM | < 5 nM | 100 to 250 nM |
| Cc1ccc(Nc2nccc(-c3ccc(OC4CCN(C(=O)CO)CC4)c(C#N)c3)n2)cn1 [Example Compound 130, 2-{[1-(Hydroxyacetyl)piperidin-4-yl]oxy}-5-{2-[(6-methylpyridin-3-yl)amino]pyrimidin-4-yl}benzonitrile] | – | – | – | – | – | – | < 5 nM | 1000 to 5000 nM |
